Results as given in patent publication US20250186437A1, “CARBOLINE COMPOUNDS AND USE THEREOF” (PTC Therapeutics, Inc., priority 2021, published 2025).

What was measured:
[1] = tested on: MOLM-13 cells; experiment: MOLM-13 Cell Proliferation Assay (indicator of DHODH inhibition); assay type: cell-based; details: 72 Hours of culture, CellTiter-Glo, no uridine
Procedure, shortened: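 Proliferation readout via CellTiter-Glo luminescence after 72 h compound treatment (37 °C, 5% CO2, 0.5% DMSO) of MOLM-13 cells seeded at 10^4 per well in RPMI 1640/10% FBS, used as a DHODH-inhibition indicator since these cells rely on de novo pyrimidine synthesis.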

[2] = tested on: MOLM-13 cells; experiment: MOLM-13 Uridine Rescue Assay; assay type: cell-based; details: Homo sapiens; MOLM-13 cell proliferation with 100 μM Uridine added, 72 Hours of culture
Protocol: The following assay was conducted to measure proliferation of MOLM-13 cells in the presence of each compound studied. This assay was included as an indicator of DHODH inhibition, as growth of MOLM-13 cells is known to depend on synthesis of pyrimidines using the de novo pathway, which can be blocked by inhibition of DHODH. • 1. MOLM-13 cells were cultured in RPMI 1640 medium+10% Fetal Bovine Serum (FBS). Only low passage cells (<20) were used for the compound tests • 2. On day 1, Log-phase growing Molm-13 Cells were counted and diluted to 10^5 cells/mL in RPMI 1640 medium+10% FBS • 3. 100 μL of diluted MOLM-13 cells in 96 well white plates were seeded, for a final density of 10^4 cells/well. • 4. 0.5 μL of pre-diluted 200× compounds or DMSO control was added to each well. The final DMSO concentration was 0.5%. • 5. After 72 Hours of culture at 37° C., 5% CO2, the plates were taken out and cooled to RT, then 50 μL CellTiter-Glo® (Promega) was added, and the composition was mixed at RT for 10 minutes. • 6. The plates were then read by ViewLux (Speed-fast, Gain-High, Bining-1X, 5 seconds).
Several compounds were also tested in a Uridine rescue assay. In the Uridine rescue assay, using the procedure in Example 1 above, an additional plate of MOLM-13 cell cultures was prepared, to which 100 μM of Uridine was added in step 3 of the process.

SMILES | IC50 ([1]; Homo sapiens) | IC50 [2] | IC50 [1]
Cc1ccc(C2c3[nH]c4cc(F)c(Cl)cc4c3CCN2c2nccc(C(F)(F)F)n2)cc1 (centres unmarked) [Compound 72, 6-chloro-7-fluoro-1-(4-methylphenyl)-2-[4-(trifluoromethyl)pyrimidin-2-yl]-2,3,4,9-tetrahydro-1H-pyrido[3,4-b]indole] | 3.5 nM | 18800 nM | 
Fc1cc2[nH]c3c(c2cc1Cl)CCN(c1nccc(C(F)(F)F)n1)C3c1cccc(F)c1F (centres unmarked) [Compound 108, 6-chloro-1-(2,3-difluorophenyl)-7-fluoro-2-[4-(trifluoromethyl)pyrimidin-2-yl]-2,3,4,9-tetrahydro-1H-pyrido[3,4-b]indole] | 1.9 nM | 8270 nM | 
Fc1cc2[nH]c3c(c2cc1Cl)CCN(c1nc(C(F)(F)F)cc(C(F)(F)F)n1)C3c1cccc(F)c1F (centres unmarked) [Compound 157, 2-[4,6-bis(trifluoromethyl)pyrimidin-2-yl]-6-chloro-1-(2,3-difluorophenyl)-7-fluoro-2,3,4,9-tetrahydro-1H-pyrido[3,4-b]indole] | 0.6 nM | 14900 nM | 
Cc1ccc(C2c3[nH]c4ccc(Cl)c(F)c4c3CCN2c2nccc(C(F)(F)F)n2)c(F)c1F (centres unmarked) [Compound 197, 6-chloro-1-(2,3-difluoro-4-methylphenyl)-5-fluoro-2-[4-(trifluoromethyl)pyrimidin-2-yl]-2,3,4,9-tetrahydro-1H-pyrido[3,4-b]indole] | 1.1 nM | 17500 nM | 
Cc1cc(C(F)(F)F)nc(N2CCc3c([nH]c4ccc(Cl)cc34)C2c2ccc(C)c(F)c2F)n1 (centres unmarked) [Compound 213, 6-chloro-1-(2,3-difluoro-4-methylphenyl)-2-[4-methyl-6-(trifluoromethyl)pyrimidin-2-yl]-2,3,4,9-tetrahydro-1H-pyrido[3,4-b]indole] | 1 nM | 7600 nM | 
Cc1ccc(C2c3[nH]c4c(O)cc(Cl)cc4c3CCN2c2nccc(C(F)(F)F)n2)c(F)c1F (centres unmarked) [Compound 220, 6-chloro-1-(2,3-difluoro-4-methylphenyl)-2-[4-(trifluoromethyl)pyrimidin-2-yl]-2,3,4,9-tetrahydro-1H-pyrido[3,4-b]indol-8-ol] | 1.1 nM | 6700 nM | 
Cc1ccc(C2c3[nH]c4c(N)cc(Cl)cc4c3CCN2c2nccc(C(F)(F)F)n2)cc1 (centres unmarked) [Compound 231, 6-chloro-1-(4-methylphenyl)-2-[4-(trifluoromethyl)pyrimidin-2-yl]-2,3,4,9-tetrahydro-1H-pyrido[3,4-b]indol-8-amine] | 1.1 nM | 19300 nM | 
Cc1ccc([C@H]2c3[nH]c4ccc(Cl)cc4c3CCN2c2nccc(C(F)(F)F)n2)c(F)c1F [Compound 233, (1S)-6-chloro-1-(2,3-difluoro-4-methylphenyl)-2-[4-(trifluoromethyl)pyrimidin-2-yl]-2,3,4,9-tetrahydro-1H-pyrido[3,4-b]indole] | 0.4 nM | 12400 nM | 
Cc1ccc([C@H]2c3[nH]c4ccc([N+](=O)[O-])cc4c3CCN2c2nc(C(F)(F)F)nc(C(F)(F)F)n2)c(F)c1F [Compound 527, (1S)-2-[4,6-bis(trifluoromethyl)-1,3,5-triazin-2-yl]-1-(2,3-difluoro-4-methylphenyl)-6-nitro-2,3,4,9-tetrahydro-1H-pyrido[3,4-b]indole] | 0.6 nM |  | 
COc1ccc2[nH]c3c(c2c1)CCN(c1nc(C(F)(F)F)cc(C(F)(F)F)n1)[C@H]3c1ccc(C)c(F)c1F [Compound 528, (1S)-2-[4,6-bis(trifluoromethyl)pyrimidin-2-yl]-1-(2,3-difluoro-4-methylphenyl)-6-methoxy-2,3,4,9-tetrahydro-1H-pyrido[3,4-b]indole] | 1.2 nM |  | 
Cc1cnn(-c2ccc3[nH]c4c(c3c2)CCN(c2nc(C(F)(F)F)nc(C(F)(F)F)n2)[C@H]4c2ccc(C)c(F)c2F)c1 [Compound 529, (1S)-2-[4,6-bis(trifluoromethyl)-1,3,5-triazin-2-yl]-1-(2,3-difluoro-4-methylphenyl)-6-(4-methyl-1H-pyrazol-1-yl)-2,3,4,9-tetrahydro-1H-pyrido[3,4-b]indole] | 4.1 nM |  | 
Cc1ccn(-c2ccc3[nH]c4c(c3c2)CCN(c2nc(C(F)(F)F)nc(C(F)(F)F)n2)[C@H]4c2ccc(C)c(F)c2F)n1 [Compound 530, (1S)-2-[4,6-bis(trifluoromethyl)-1,3,5-triazin-2-yl]-1-(2,3-difluoro-4-methylphenyl)-6-(3-methyl-1H-pyrazol-1-yl)-2,3,4,9-tetrahydro-1H-pyrido[3,4-b]indole] | 10.9 nM |  | 
CN(C)CCNc1ncc([C@H]2c3[nH]c4ccc(Cl)cc4c3CCN2c2nc(C(F)(F)F)nc(C(F)(F)F)n2)cn1 [Compound 531, N^2-(5-{(1S)-2-[4,6-bis(trifluoromethyl)-1,3,5-triazin-2-yl]-6-chloro-2,3,4,9-tetrahydro-1H-pyrido[3,4-b]indol-1-yl}pyrimidin-2-yl)-N^1,N^1-dimethylethane-1,2-diamine] | 5 nM |  | 
COC(=O)c1ncc([C@H]2c3[nH]c4ccc(Cl)cc4c3CCN2c2nc(C(F)(F)F)nc(C(F)(F)F)n2)cn1 [Compound 532, methyl 5-{(1S)-2-[4,6-bis(trifluoromethyl)-1,3,5-triazin-2-yl]-6-chloro-2,3,4,9-tetrahydro-1H-pyrido[3,4-b]indol-1-yl} pyrimidine-2-carboxylate] |  |  | 8.1 nM
CC(=O)c1ncc([C@H]2c3[nH]c4ccc(Cl)cc4c3CCN2c2nc(C(F)(F)F)nc(C(F)(F)F)n2)cn1 [Compound 533, 1-(5-{(1S)-2-[4,6-bis(trifluoromethyl)-1,3,5-triazin-2-yl]-6-chloro-2,3,4,9-tetrahydro-1H-pyrido[3,4-b]indol-1-yl}pyrimidin-2-yl)ethan-1-one] | 4.7 nM |  | 
COCCOc1ncc([C@H]2c3[nH]c4ccc(Cl)cc4c3CCN2c2nc(C(F)(F)F)nc(C(F)(F)F)n2)cn1 [Compound 534, (1S)-2-[4,6-bis(trifluoromethyl)-1,3,5-triazin-2-yl]-6-chloro-1-[2-(2-methoxyethoxy)pyrimidin-5-yl]-2,3,4,9-tetrahydro-1H-pyrido[3,4-b]indole] | 0.8 nM |  | 
OCCNc1ncc([C@H]2c3[nH]c4ccc(Cl)cc4c3CCN2c2nc(C(F)(F)F)nc(C(F)(F)F)n2)cn1 [Compound 535, 2-[(5-{(1S)-2-[4,6-bis(trifluoromethyl)-1,3,5-triazin-2-yl]-6-chloro-2,3,4,9-tetrahydro-1H-pyrido[3,4-b]indol-1-yl}pyrimidin-2-yl)amino]ethan-1-ol] | 0.7 nM |  | 
COCCOc1ncc(C2c3[nH]c4ccc(Cl)cc4c3CCN2c2nc(C(F)(F)F)nc(C(F)(F)F)n2)cn1 (centres unmarked) [Compound 536, 2-[4,6-bis(trifluoromethyl)-1,3,5-triazin-2-yl]-6-chloro-1-[2-(2-methoxyethoxy)pyrimidin-5-yl]-2,3,4,9-tetrahydro-1H-pyrido[3,4-b]indole] | 1.2 nM |  | 
O=C(O)CCNc1ncc([C@H]2c3[nH]c4ccc(Cl)cc4c3CCN2c2nc(C(F)(F)F)nc(C(F)(F)F)n2)cn1 [Compound 537, N-(5-{(1S)-2-[4,6-bis(trifluoromethyl)-1,3,5-triazin-2-yl]-6-chloro-2,3,4,9-tetrahydro-1H-pyrido[3,4-b]indol-1-yl}pyrimidin-2-yl)-β-alanine] | 4 nM |  | 
O=C(O)CCCNc1ncc([C@H]2c3[nH]c4ccc(Cl)cc4c3CCN2c2nc(C(F)(F)F)nc(C(F)(F)F)n2)cn1 [Compound 538, 4-[(5-{(1S)-2-[4,6-bis(trifluoromethyl)-1,3,5-triazin-2-yl]-6-chloro-2,3,4,9-tetrahydro-1H-pyrido[3,4-b]indol-1-yl}pyrimidin-2-yl)amino]butanoic acid] | 0.4 nM |  | 
O=C(O)COCCNc1ncc([C@H]2c3[nH]c4ccc(Cl)cc4c3CCN2c2nc(C(F)(F)F)nc(C(F)(F)F)n2)cn1 [Compound 539, {2-[(5-{(1S)-2-[4,6-bis(trifluoromethyl)-1,3,5-triazin-2-yl]-6-chloro-2,3,4,9-tetrahydro-1H-pyrido[3,4-b]indol-1-yl}pyrimidin-2-yl)amino]ethoxy}acetic acid] | 12 nM |  | 
Cc1ccc(C2c3[nH]c4cc(F)c(Cl)cc4c3CCN2c2nc(Cl)cc(N(C)C)n2)cc1 (centres unmarked) [Cpd 17, 6-chloro-2-[6-chloro-7-fluoro-1-(4-methylphenyl)-1,3,4,9-tetrahydro-2H-pyrido[3,4-b]indol-2-yl]-N,N-dimethylpyrimidin-4-amine] | 18.4 nM |  | 
Cc1ccc(C2c3[nH]c4cc(F)c(Cl)cc4c3CCN2c2nc(C)c(F)c(C)n2)cc1 (centres unmarked) [Cpd 106, 6-chloro-7-fluoro-2-(5-fluoro-4,6-dimethylpyrimidin-2-yl)-1-(4-methylphenyl)-2,3,4,9-tetrahydro-1H-pyrido[3,4-b]indole] | 7.4 nM |  | 
Fc1c(Cl)ccc(C2c3[nH]c4ccc(Cl)cc4c3CCN2c2nccc(C(F)(F)F)n2)c1F (centres unmarked) [Cpd 144, 6-chloro-1-(4-chloro-2,3-difluorophenyl)-2-[4-(trifluoromethyl)pyrimidin-2-yl]-2,3,4,9-tetrahydro-1H-pyrido[3,4-b]indole] | 0.7 nM |  | 
